Patent US9957287B2, “Methods and compositions to treat type-1 and type-2 diabetes” (CORNELL UNIVERSITY, priority 2016, dated 2018)

System: β cells of DKO mice fed a HFD
Assay: MEK162 treatment in vivo of TLR2/TLR4 DKO mice on HFD, histological analysis
Parameters: species or system mouse
Experimental: For S961 studies, 45-week-old mice under a LFD or HFD were anesthetized and subcutaneously implanted with osmotic pumps (ALZET) filled with insulin receptor antagonist S961 4 or vehicle PBS. Mice were infused with S961 at the dose of 10 nmoles/week for 2 weeks, followed by euthanization and histological analysis of islets. For MEK162 studies, TLR2/TLR4 DKO mice on HFD for 8 weeks were orally gavaged with MEK162 (20 mg/kg body weight, LC laboratories) or vehicle, twice daily for 2 days, followed by euthanization and histological analysis.
For quantification of β cell area, six independent pancreatic tissue sections from 3-4 mice were randomly selected. Total insulin-positive and total pancreas area was measured using the Aperio Imagescope and ImageJ, from which percentage of insulin-positive area was calculated. For quantitation of β cell proliferation, cytoplasmic insulin and nuclear Ki67 double-positive cells were counted as proliferating β cells. Percent of proliferating cells were calculated by dividing the number of Ki67 and insulin-double positive cells by insulin-positive cells of each islet. Islets from 3-4 mice in each group with ˜200-400 β cells in LFD and ˜2,000-7,300 β cells in HFD cohorts were analyzed using the ImageJ software.
Pancreas was fixed in 4% paraformaldehyde, embedded in paraffin, and sectioned by Cornell Histology Core Facility. Ten-micrometer-thick paraffin sections were stained with hematoxylin/eosin. For staining of insulin with immunofluorescence, paraffinembedded sections were rehydrated by sequentially washing in xylene, 100%, 95%, 75% ethanol and water. Then slides were boiled in […] for antigen exposure. After blocking using 5% donkey serum, primary guinea pig anti-rat insulin antibody (Linco, 1:200) were applied and incubated overnight at 4° C., followed with washes and incubation with FITC-conjugated donkey anti-guinea pig IgG (Jackson ImmunoResearch, 1:200). […] Fluorescence Images were captured under a Zeiss LSM710 confocal microscope at Cornell Biotechnology Resource Center Imaging Facility. […]

[1] = DKO mice on HFD for 8 weeks, MEK162 oral 20 mg/kg twice daily for the last 2 days

SMILES: Cn1cnc2c(F)c(Nc3ccc(Br)cc3F)c(C(=O)NOCCO)cc21 [MEK162]
- ERK activation (DKO mice fed a HFD, MEK162 oral 20 mg/kg twice daily for 2 days): blocked
- nuclear entry of Cyclin D2 [1]: abolished
- β cell proliferation (Ki67-positive β cells) [1]: abolished
